The values below come from patent US9795140B2, “Molecules having pesticidal utility, and intermediates, compositions, and processes, related thereto” (priority 2015, dated 2017).

Format in all cases: in vivo
The subject of series [1] is Green Peach Aphid (Myzus persicae, MYZUPE). Kind of series: Bioassay on Green Peach Aphid (GPA), foliar spray on cabbage seedlings. The note with it: 72 h, 200 ppm spray on infested cabbage seedlings, three days, Abbott corrected % control, read-out: GPA % Control (or Mortality) rating. How it is done: Certain molecules disclosed in this document were tested against GPA using procedures described in the following example. In the reporting of the results, the “GPA & YFM Rating Table” was used (See Table Section).
Cabbage seedlings grown in 3-inch pots, with 2-3 small (3-5 cm) true leaves, were used as test substrate. The seedlings were infested with 20-50 GPA (wingless adult and nymph stages) one day prior to chemical application. Four pots with individual seedlings were used for each treatment. Test molecules (2 mg) were dissolved in 2 mL of acetone/methanol (1:1) solvent, forming stock solutions of 1000 ppm test molecule. The stock solutions were diluted 5× with 0.025% Tween 20 in water to obtain the solution at 200 ppm test molecule. A hand-held aspirator-type sprayer was used for spraying a solution to both sides of […] leaves until runoff. Reference plants (solvent check) were sprayed with the diluent only containing 20% by volume of acetone/methanol (1:1) solvent. Treated plants were held in a holding room for three days at approximately 25° C. and ambient relative humidity (RH) prior to grading. Evaluation was conducted by counting the number of live aphids per plant under a microscope. Percent control was measured using Abbott's correction formula (W. S. Abbott, “A Method of Computing the Effectiveness of an Insecticide” J. Econ. Entomol. 18 (1925), pp. 265-267) as follows. Corrected % Control=100*(X−Y)/X where X=No. of live aphids on solvent check plants and Y=No. of live aphids on treated plants. The results are indicated in the table entitled “Table ABC: Biological Results” (See Table Section).

Series [2] deals with Beet Armyworm (Spodoptera exigua, LAPHEG). Put plainly: Bioassay on Beet Armyworm (BAW), 128-well diet tray assay. The note with it: 168 h, 50 μg/cm^2 on artificial diet, second instar larvae, 25° C., five to seven days, average of eight wells, read-out: BAW % Control (or Mortality) rating. The method, boiled down:
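Diet in each of eight wells received 50 μg/cm^2 of test molecule (90:10 acetone-water, dried), then one to five second-instar larvae were added. Mortality (%) was scored after five to seven days at 25° C. under 14:10 light-dark and averaged across the wells.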

Series [3] has as its system Cabbage Looper (Trichoplusia ni, TRIPNI). Put plainly: Bioassay on Cabbage Looper (CL), 128-well diet tray assay. The note with it: 168 h, 50 μg/cm^2 on artificial diet, second instar larvae, 25° C., five to seven days, average of eight wells, read-out: CL % Control (or Mortality) rating. The essentials: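 Percent larval mortality, averaged across eight replicate wells, was scored after 5–7 days at 25 °C with a 14:10 photoperiod. Each well held 1 mL diet surface-treated at 50 μg/cm^2 with test molecule from a 90:10 acetone-water solution, then dried. Wells were infested with one to five second-instar cabbage loopers.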

For series [4], the system named is Yellow Fever Mosquito (Aedes aegypti, AEDSAE). Put plainly: Bioassay on Yellow Fever Mosquito (YFM) larvae, 96-well plate. The note with it: about 1 day-old larvae, room temperature, 3 days, scored on mortality. The essentials: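 Aedes aegypti larvae (about 1 day old) in liver-powder water were added to plates dispensed from DMSO master plates (4000 ppm stock) diluted with 90:10 water/acetone; six replicate plates per master. Lidded plates were held at room temperature for 3 days, then each well was scored for mortality.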

One may read the mortality as the percentage killed. With `CN(CC(F)(F)F)C(=O)c1cc(NC(=O)[C@H]2[C@H](c3cc(Cl)cc(Cl)c3)C2(Cl)Cl)ccc1Cl` (relative stereo) [F59, trans-2-Chloro-5-(2,2-dichloro-3-(3,5-dichlorophenyl)cyclopropane-1-carboxamido)-N-methyl-N-(2,2,2-trifluoroethyl)benzamide], the mortality at 200 ppm in series [1] was in the range of 0 to 80%. The mortality at 50 µg/cm2 in series [2] and in series [3] was 50 to 100% throughout. Also, in series [4], the “YFM % Control (or Mortality) rating” value is “A (80-100)”.
For the compound `CS(=O)(=O)CCNC(=O)c1cc(NC(=O)[C@H]2[C@H](c3cc(Cl)cc(Cl)c3)C2(Cl)Cl)ccc1Cl` (relative stereo) [F75, trans-2-chloro-5-(2,2-dichloro-3-(3,5-dichlorophenyl)cyclopropane-1-carboxamido)-N-(2-(methylsulfonyl)ethyl)benzamide], the mortality at 200 ppm in series [1] lay in the range of 80 to 100%. Further, the mortality at 50 µg/cm2 in series [2] and in series [3] was 50 to 100% each time. Moreover, the “YFM % Control (or Mortality) rating” value in series [4] was “A (80-100)”.
As to `O=C(NCC(O)C(F)(F)F)c1cc(NC(=O)[C@H]2[C@H](c3cc(Cl)cc(Cl)c3)C2(Cl)Cl)ccc1Cl` (relative stereo) [PF16, trans-2-Chloro-5-(2,2-dichloro-3-(3,5-dichlorophenyl)cyclopropane-1-carboxamido)-N-(3,3,3-trifluoro-2-hydroxypropyl)benzamide], the mortality at 200 ppm in series [1] lay within 80 to 100%. The mortality at 50 µg/cm2 in series [2] and in series [3] was 50 to 100% each time. The “YFM % Control (or Mortality) rating” value in series [4] is “A (80-100)”.
`C[C@H](CSCC(F)(F)F)NC(=O)c1cc(NC(=O)C2C(c3cc(Cl)cc(Cl)c3)C2(Cl)Cl)ccc1Cl` (stereo in doubt) [PF3, trans-2-Chloro-5-(2,2-dichloro-3-(3,5-dichlorophenyl)cyclopropane-1-carboxamido)-N—((R)-1-((2,2,2-trifluoroethyl)thio)propan-2-yl)benzamide]: the mortality at 200 ppm in series [1] lay within 80 to 100%. Further, the mortality at 50 µg/cm2 in series [2] and in series [3] was 50 to 100% in each case. In addition, in series [4], the “YFM % Control (or Mortality) rating” value is recorded as “B (More than 0-Less than 80)”.
As for `C[C@H](CS(=O)(=O)CC(F)(F)F)NC(=O)c1cc(NC(=O)C2C(c3cc(Cl)cc(Cl)c3)C2(Cl)Cl)ccc1Cl` (stereo in doubt) [PF6, trans-2-Chloro-5-(2,2-dichloro-3-(3,5-dichlorophenyl)cyclopropane-1-carboxamido)-N—((R)-1-((2,2,2-trifluoroethyl)sulfonyl)propan-2-yl)benzamide], in series [1], the mortality at 200 ppm lay within 0 to 80%. In addition, the mortality at 50 µg/cm2 in series [2] and in series [3] was 50 to 100% throughout. Moreover, in series [4], the “YFM % Control (or Mortality) rating” value is “A (80-100)”.
As to `O=C(NOCC1CC1)c1cc(NC(=O)C2C(c3cc(Cl)c(Cl)c(Cl)c3)C2(Cl)Cl)ccc1Cl` (stereo not drawn) [F15, trans-N-2-Chloro-N-(cyclopropylmethoxy)-5-(2,2-dichloro-3-(3,4,5-trichlorophenyl)cyclopropane-1-carboxamido)benzamide], the mortality at 200 ppm in series [1] fell in the range of 80 to 100%. The mortality at 50 µg/cm2 in series [2] and in series [3] was 50 to 100% throughout. In series [4], the “YFM % Control (or Mortality) rating” value is “A (80-100)”.
For the compound `O=C(NOCC1CC1)c1cc(NC(=O)C2C(c3cc(Cl)cc(Cl)c3)C2(Cl)Cl)ccc1Cl` (stereo not drawn) [F16, trans-N-2-Chloro-N-(cyclopropylmethoxy)-5-(2,2-dichloro-3-(3,5-dichlorophenyl)cyclopropane-1-carboxamido)benzamide], the mortality at 200 ppm in series [1] fell in the range of 0 to 80%. Besides, the mortality at 50 µg/cm2 in series [2] and in series [3] was 50 to 100% in each case. Besides, the “YFM % Control (or Mortality) rating” value in series [4] is listed as “A (80-100)”.
Regarding `O=C(NOCc1ccc(F)cc1)c1cc(NC(=O)C2C(c3cc(Cl)cc(Cl)c3)C2(Cl)Cl)ccc1Cl` (stereo not drawn) [F17, trans-N-2-Chloro-5-(2,2-dichloro-3-(3,5-dichlorophenyl)cyclopropane-1-carboxamido)-N-((4-fluorobenzyl)oxy)benzamide], in series [1], the mortality at 200 ppm lay in the range of 0 to 80%. The mortality at 50 µg/cm2 in series [2] and in series [3] was 50 to 100% in each case. Moreover, the “YFM % Control (or Mortality) rating” value in series [4] is “A (80-100)”.
Turning to `O=C(NCCc1ccc(F)cc1)c1cc(NC(=O)C2C(c3cc(Cl)cc(Cl)c3)C2(Cl)Cl)ccc1Cl` (stereo not drawn) [F19, trans-N-2-Chloro-5-(2,2-dichloro-3-(3,5-dichlorophenyl)cyclopropane-1-carboxamido)-N-(4-fluorophenethyl)benzamide], the mortality at 200 ppm in series [1] was 0 to 80%. In addition, the mortality at 50 µg/cm2 in series [2] and in series [3] was 50 to 100% each time. The “YFM % Control (or Mortality) rating” value in series [4] is recorded as “A (80-100)”.
As for `O=C(NCCc1ccc(F)cc1)c1cc(NC(=O)C2C(c3cc(Cl)c(Cl)c(Cl)c3)C2(Cl)Cl)ccc1Cl` (stereo not drawn) [F20, trans-N-2-Chloro-5-(2,2-dichloro-3-(3,4,5-trichlorophenyl)cyclopropane-1-carboxamido)-N-(4-fluorophenethyl)benzamide], in series [1], the mortality at 200 ppm lay within 0 to 80%. Further, the mortality at 50 µg/cm2 in series [2] and in series [3] was 50 to 100% throughout. The “YFM % Control (or Mortality) rating” value in series [4] is recorded as “A (80-100)”.
`O=C(NOCC1CC1(F)F)c1cc(NC(=O)C2C(c3cc(Cl)cc(Cl)c3)C2(Cl)Cl)ccc1Cl` (stereo not drawn) [F21, trans-N-2-Chloro-5-(2,2-dichloro-3-(3,5-dichlorophenyl)cyclopropane-1-carboxamido)-N-((2,2-difluorocyclopropyl)methoxy)benzamide]: the mortality at 200 ppm in series [1] lay within 0 to 80%. Besides, the mortality at 50 µg/cm2 in series [2] and in series [3] was 50 to 100% throughout. For the same compound, the “YFM % Control (or Mortality) rating” value in series [4] was “B (More than 0-Less than 80)”.
Consider `O=C(NOCC1CC1(F)F)c1cc(NC(=O)C2C(c3ccc(Cl)c(Cl)c3)C2(Cl)Cl)ccc1Cl` (stereo not drawn) [F22, trans-N-2-Chloro-5-(2,2-dichloro-3-(3,4-dichlorophenyl)cyclopropane-1-carboxamido)-N-((2,2-difluorocyclopropyl)methoxy)benzamide], for which the mortality at 200 ppm in series [1] fell in the range of 80 to 100%. In addition, the mortality at 50 µg/cm2 in series [2] and in series [3] was 50 to 100% throughout. Also, the “YFM % Control (or Mortality) rating” value in series [4] is “B (More than 0-Less than 80)”.
Turning to `O=C(NOCC1CC1(F)F)c1cc(NC(=O)C2C(c3cc(Cl)c(Cl)c(Cl)c3)C2(Cl)Cl)ccc1Cl` (stereo not drawn) [F23, trans-N-2-Chloro-5-(2,2-dichloro-3-(3,4,5-trichlorophenyl)cyclopropane-1-carboxamido)-N-((2,2-difluorocyclopropyl)methoxy)benzamide], the mortality at 200 ppm in series [1] was in the range of 80 to 100%. Besides, the mortality at 50 µg/cm2 in series [2] and in series [3] was 50 to 100% each time. For the same compound, the “YFM % Control (or Mortality) rating” value in series [4] is “B (More than 0-Less than 80)”.
Consider `CC(C)(C)c1ccc(CNC(=O)c2cc(NC(=O)C3C(c4cc(Cl)cc(Cl)c4)C3(Cl)Cl)ccc2Cl)cc1` (stereo not drawn) [F36, trans-N-(4-(tert-Butylbenzyl)-2-chloro-5-(2,2-dichloro-3-(3,5-dichlorophenyl)cyclopropane-1-carboxamido)benzamide], for which the mortality at 200 ppm in series [1] came to 0%. Also, the mortality at 50 µg/cm2 in series [2] and in series [3] was 0% each time. Also, in series [4], the “YFM % Control (or Mortality) rating” value is listed as “B (More than 0-Less than 80)”.
